# PubChem BioAssay AID1996
# Conditions: buffer; pH 7.4; 200.0 µM
row,Structure (SMILES),solubility kinetic [µg/mL]
1,Cc1[nH]c2ccccc2c1C(=O)CSc1cccc[n+]1[O-],40.8
2,CCc1ccccc1NC(=O)c1ccc2c(c1)CCN2S(C)(=O)=O,0.8
3,O=C(COC(=O)c1cccnc1Cl)NCCC1=CCCCC1,> 48.4
4,Cc1cc(/C=C2\SC(=S)NC2=O)c(C)[nH]1,> 35.7
5,CCc1ccccc1NC(=O)COC(=O)c1c(C)nsc1NC,1.9
6,O=C(COC(=O)/C=C/c1ccccc1Cl)NC(=O)NC1CCCC1,8.2
7,CC1CCc2[nH]c3ccc(C(=O)O)cc3c2C1 (centres undefined),> 34.4
8,Cc1nc(CC(=O)Nc2nccs2)cs1,> 35.9
9,Cc1cc(=O)[nH]c(SCC(=O)Nc2ccc(F)cc2)c1C#N,> 47.6
10,CCCS(=O)(=O)N1CCN=C1SCc1cccc(F)c1,39.6
11,CCCNc1nc(OC)nc(N2CC3CC(C2)c2cccc(=O)n2C3)n1 (centres undefined),50.6
12,CCNC(=O)COC(=O)c1cc(C)n(-c2ccccc2)c1C,> 45.1
13,COc1ccc(C2(O)C(=O)Nc3ccc(C)cc32)cc1OC (centres undefined),> 44.9
14,COc1ccccc1N1C(=O)CSC1=S,3.4
15,N#CC1=C(N)Oc2c(ccc3cccnc23)C1c1ccncc1 (centres undefined),40.8
16,CCN1CCN(c2oc(-c3ccc([N+](=O)[O-])cc3)nc2C#N)CC1,4
17,Cc1ccc(CNC(=O)c2ccc(C)s2)cc1,19.2
18,O=C(CSc1nccn1-c1ccccc1)NCc1ccc(F)cc1,33.5
19,CCc1nc(-c2ccccc2)c2ccccn12.O=C(O)C(=O)O,38.1
20,CCOC(=O)c1c(-c2ccccc2)oc2ccc(OCC(N)=O)cc12,< 0.7

row,Structure (SMILES),solubility kinetic [µg/mL]
1,COc1cc2[nH]c(C(=O)N3CCN(C)CC3)cc2c(OC)c1OC,33.8
2,N#C/C(=C\C=C\c1ccccc1)C(=O)NCc1ccco1,6.3
3,Cc1noc(C)c1S(=O)(=O)N1CCC(C(=O)O)CC1,> 43.2
4,O=C(NCC1COc2ccccc2O1)C1(c2ccccc2)CCCC1 (centres undefined),17.8
5,COC(=O)[C@H](Cc1ccccc1)NC(=O)NC(C)CCc1ccccc1 (some centres undefined),49.8
6,O=C(O)C1CSC(c2ccc(O)c([N+](=O)[O-])c2)N1 (centres undefined),> 40.5
7,O=C(NCCCl)Nc1ccccc1NS(=O)(=O)c1cccs1,> 54
8,COc1ccccc1N1CCN(C(=O)c2ccc(Br)o2)CC1,> 54.8
9,COc1cccc(NC(=S)NCc2ccccc2)c1,> 40.9
10,COc1ccc(NC(=S)NCc2ccccc2Cl)c(OC)c1,< 0.4
11,Cc1cccc(C)c1NC(=O)c1cccc(C(=O)Nc2c(C)cccc2C)n1,27.7
12,COc1ccc(-n2c(O)c(C=NCc3ccc4c(c3)OCO4)c(=O)[nH]c2=O)cc1,6.8
13,COc1ccc(Cn2c(=S)[nH]c3ccccc32)cc1,1.2
14,CCC1CC(C(=O)Nc2ccccc2)C(=O)O1 (centres undefined),> 35
15,O=C(Nc1cccc(S(=O)(=O)NC2=NCCC2)c1)c1ccc(C(F)(F)F)cc1,7.3
16,COc1ccc(C(=O)N(C)Cc2ccccc2F)cc1S(=O)(=O)N1CCCC1,> 61
17,Cc1c(C(=O)NCCCn2ccnc2)oc2ccccc12,34.1
18,O=c1[nH]c(=O)n(C2CCCO2)cc1F (centres undefined),29.9
19,COc1cc2ccccc2cc1C(=O)N1CCCC(C(F)(F)F)C1 (centres undefined),> 50.6
20,c1ccc(CCN2CCC3(CC2)OCCO3)cc1,29.2

row,Structure (SMILES),solubility kinetic [µg/mL]
1,CCCc1cc(=O)[nH]c(SCC(=O)N2CCC(C)CC2)n1,> 46.4
2,CNC(=S)NCc1ccc2[nH]c(C)cc2c1,> 35
3,CCC(COC(C)=O)Nc1nc2c([nH]1)c(=O)n(C)c(=O)n2C (centres undefined),> 46.4
4,Cc1cccc(C(=O)O/N=C(\N)c2ccccn2)c1,> 38.3
5,Cc1cc(C)cc(C(=O)OCC(=O)NC2CCCC2)c1,21.7
6,Cc1ncc(CSc2ccc(Cl)cc2)c(CO)c1O,14.1
7,Cc1cc(C)c(NC(=O)c2cccc(NC(=O)c3ccco3)c2)c(C)c1,44.3
8,CCN(CC)P(=O)(Oc1ccccc1)Oc1ccccc1,34.2
9,NC(=O)c1ccc2nc(-c3ccccc3)c(-c3ccccc3)nc2c1,0.6
10,Cc1ccccc1OCCC(=O)Nc1ccc2c(C)cc(=O)oc2c1,4.2
11,CCCOc1ccc(CN(C)c2ncnc(N)n2)cc1,13.5
12,CNC(=O)c1cc(S(=O)(=O)NCc2ccncc2)ccc1OC,> 50.3
13,CN1Cc2c(N3CCOCC3)nc3sc(C#N)c(N)c3c2CC1(C)C,15
14,Cc1cccc(OC(=O)c2cccnc2)c1C,25
15,CC1=C([N+](=O)[O-])C(c2ccccc2C(F)(F)F)NC(=O)N1C (centres undefined),> 47.3
16,Cc1cc[n+](CC(=O)Nc2ccccc2)cc1.[Br-],45.4
17,CC(=O)Nc1ccc(-c2cn3c(n2)SCC3)cc1,34.4
18,O=C(Nc1cccc2ccccc12)c1ccc([N+](=O)[O-])cc1,1
19,COc1cc(NC(=O)Nc2cccc(Cl)c2)c(C(=O)O)cc1OC,> 52.6
